From patent US20130204033A1, “ANTIPROLIFERATIVE COMPOUNDS, CONJUGATES THEREOF, METHODS THEREFOR, AND USES THEREOF” (Medarex, Inc., priority 2009, published 2013)
Like-named read-outs stand apart in the source and are kept apart here.

Experiments:
Type in all cases: cell-based, human
[1] = tested on: A2058; test: 3H thymidine proliferation assay, A2058; details: 3H thymidine method, 72 h incubation
How it was run: (§1)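 Seeding: 1.0×10^4 cells/well, 3 h. Dosing: 1:3 serial dilutions, 72 h. Label: ^3H-thymidine 1.0 μCi/well for last 24 h, scintillation read; EC50 = 50% proliferation reduction.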

[2] = tested on: A549; test: 3H thymidine proliferation assay, A549
How it was run: as §1

[3] = tested on: PC3; test: 3H thymidine proliferation assay, PC3
How it was run: as §1

[4] = tested on: SKOV3; test: 3H thymidine proliferation assay, SKOV3
How it was run: as §1

[5] = tested on: UO-31; test: 3H thymidine proliferation assay, UO-31
How it was run: as §1

[6] = tested on: H740; test: 3H thymidine proliferation assay, H740
How it was run: as §1

[7] = tested on: SK-BR3; test: 3H thymidine proliferation assay, SK-BR3; details: 3H thymidine method, 72 h incubation
How it was run: as §1

[8] = tested on: OVCAR3; test: 3H thymidine proliferation assay, OVCAR3
How it was run: as §1

[9] = tested on: HL-60; test: 3H thymidine proliferation assay, HL-60
How it was run: as §1

[10] = tested on: Raji; test: 3H thymidine proliferation assay, Raji
How it was run: as §1

[11] = tested on: HCT-15; test: ATP luminescence proliferation assay, HCT-15
How it was run: (§2)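 Human tumor lines, cultured per supplier instructions, are plated at 1.0×10^3 cells/well and allowed 3 h before 1:3 serially diluted test agents are added. Viability is read as ATP luminescence after 48, 72 or 96 h.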

[12] = tested on: U-87 MG; test: ATP luminescence proliferation assay, U-87 MG
Protocol: (§3) This example generally describes the procedures used to assay the antiproliferative activity of compounds of this invention or their conjugates. Human tumor cell lines were obtained from the American Type Culture Collection (ATCC), P.O. Box 1549, Manassas, Va. 20108, USA, and cultured according to instruction from the ATCC. Cells were seeded at 1.0×10^3 or 1.0×10^4 cells/well in 96-well plates for 3 h for ATP assays or ^3H thymidine assays, respectively. 1:3 serial dilutions of free (unconjugated) compounds or their conjugates were added to the wells. Plates were allowed to incubate for 24 to 72 h. The ^3H thymidine plates were pulsed with 1.0 μCi of ^3H-thymidine per well for the last 24 hours of the total incubation period, harvested, and read on a Top Count Scintillation Counter (Packard Instruments, Meriden, Conn.). ATP levels in the ATP plates were measured using the […]-GLO® Luminescent Cell Viability kit following the manufacturer's manual and read on a GLOMAX® 20/20 luminometer (both from Promega, Madison, Wis., USA). The EC50 values—the concentration at which an agent inhibits or reduces cell proliferation by 50% —were determined using PRISM™ software, version 4.0 (GraphPad Software, La Jolla, Calif., USA).
(§4) Using the ^3H thymidine or the ATP luminescence assay, or both, the activities of compounds of this invention were assayed against the following cancer cell lines: HCT-15 (colorectal cancer, multi-drug resistant (MDR)); Hep3B (liver cancer); LNCaP (prostate cancer, androgen receptor positive (AR^+)); MDA-MB-231 (breast cancer, estrogen receptor, progesterone receptor, and Her2 negative (triple negative)); A2058 (melanoma); U-87 MG (glioblastoma); NCI-H460 (NSCLC); A549 (NSCLC); HPAC (pancreatic cancer, primary); PC3 (prostate cancer, AR); BT474 (breast cancer, Her2 highly positive (Her2hi)); SKOV3 (ovarian cancer, Her2hi); 786-O (renal cancer); UO-31 (renal cancer, MDR); NCI-H740 (SCLC); DMS53 (SCLC); SK-BR3 (breast cancer, Her2hi); ZR-75 (breast cancer, estrogen receptor positive); OVCAR3 (ovarian cancer); HL-60 (APL); OVCAR8/Adr (ovarian cancer, MDR); CEM-Cl (ALL); Nomo-1 (AML); RPMI-8226 (MM)); Raji (lymphoma); SW-480 (colorectal cancer, metastatic); SW-620 (colorectal cancer); and H226 (lung cancer). (Not all compounds were assayed against all cell lines.)
(§5) Table 3 provides the data for the ATP luminescence proliferation assays, with an incubation period of 48, 72, or 96 h, as noted.

[13] = tested on: NCI-H460; test: ATP luminescence proliferation assay, NCI-H460
Protocol: as §3, §4, §5

[14] = tested on: PC3; test: ATP luminescence proliferation assay, PC3
Protocol: as §3, §4, §5

[15] = tested on: ZR-75; test: ATP luminescence proliferation assay, ZR-75
Protocol: as §3, §4, §5

[16] = tested on: OVCAR3; test: ATP luminescence proliferation assay, OVCAR3
How it was run: as §2

[17] = tested on: CEM-Cl; test: ATP luminescence proliferation assay, CEM-C1
Protocol: as §3, §4, §5

[18] = tested on: RPMI-8226; test: ATP luminescence proliferation assay, RPMI-8226
Protocol: as §3, §4, §5

[19] = tested on: Raji; test: ATP luminescence proliferation assay, Raji
Protocol: as §3, §4, §5

[20] = tested on: SW-620; test: ATP luminescence proliferation assay, SW-620
Protocol: as §3, §4, §5

[21] = 3H thymidine method, 72 h incubation, read-out: EC50, A549
[22] = 3H thymidine method, 72 h incubation, read-out: EC50, PC3
[23] = 3H thymidine method, 72 h incubation, read-out: EC50, SKOV3
[24] = 3H thymidine method, 72 h incubation, read-out: EC50, UO-31
[25] = 3H thymidine method, 72 h incubation, read-out: EC50, H740
[26] = 3H thymidine method, 72 h incubation, read-out: EC50, OVCAR3
[27] = 3H thymidine method, 72 h incubation, read-out: EC50, HL-60
[28] = 3H thymidine method, 72 h incubation, read-out: EC50, Raji
[29] = ATP luminescence, HCT-15, 72 h incubation, read-out: EC50 HCT-15 (72 h)
[30] = ATP luminescence, 72 h incubation, read-out: EC50 U-87 MG (72 h)
[31] = ATP luminescence, NCI-H460, 72 h incubation, read-out: EC50 NCI-H460 (72 h)
[32] = ATP luminescence, PC3, 48 h incubation, read-out: EC50 PC3 (48 h)
[33] = ATP luminescence, ZR-75, 48 h incubation, read-out: EC50 ZR-75 (48 h)
[34] = ATP luminescence, OVCAR3, 48 h incubation, read-out: EC50 OVCAR3 (48 h)
[35] = ATP luminescence, CEM-C1, 72 h incubation, read-out: EC50 CEM-C1 (72 h)
[36] = ATP luminescence, RPMI-8226, 72 h incubation, read-out: EC50 RPMI-8226 (72 h)
[37] = ATP luminescence, 72 h incubation, read-out: EC50 Raji (72 h)
[38] = ATP luminescence, SW-620, 96 h incubation, read-out: EC50 SW-620 (96 h)

| SMILES | EC50 [1] [nM] | EC50 [2, 21] [nM] | EC50 [3, 22] [nM] | EC50 [4, 23] [nM] | EC50 [5, 24] [nM] | EC50 [6, 25] [nM] | EC50 [7] [nM] | EC50 [8, 26] [nM] | EC50 [9, 27] [nM] | EC50 [10, 28] [nM] | EC50 [11, 29] [nM] | EC50 [12, 30] [nM] | EC50 [13, 31] [nM] | EC50 [14, 32] [nM] | EC50 [15, 33] [nM] | EC50 [16, 34] [nM] | EC50 [17, 35] [nM] | EC50 [18, 36] [nM] | EC50 [19, 37] [nM] | EC50 [20, 38] [nM] | other results |
| --- | --- | --- | --- | --- | --- | --- | --- | --- | --- | --- | --- | --- | --- | --- | --- | --- | --- | --- | --- | --- | --- |
| CC[C@H](C)[C@H](NC(=O)[C@H]1CCCCN1C)C(=O)N(C)[C@H](C[C@@H](OC)c1nc(C(=O)N[C@H](CCC(=O)OC)Cc2ccccc2)cs1)C(C)C [Compound 26] | – | – | – | – | – | – | – | – | – | – | – | – | – | – | – | – | – | – | – | – | EC50 ([1]; Homo sapiens, A2058): 25 nM; EC50 ([2]; Homo sapiens, A549, read-out: EC50, A549, 3H thymidine method, 72 h incubation): 18 nM; EC50 ([3]; Homo sapiens, PC-3, read-out: EC50, PC3, 3H thymidine method, 72 h incubation): 16 nM; EC50 ([4]; Homo sapiens, SK-OV-3, read-out: EC50, SKOV3, 3H thymidine method, 72 h incubation): 4.6 nM; EC50 ([5]; Homo sapiens, UO-31, read-out: EC50, UO-31, 3H thymidine method, 72 h incubation): 50 nM; EC50 ([6]; Homo sapiens, read-out: EC50, H740, 3H thymidine method, 72 h incubation): 3 nM; EC50 ([7]; Homo sapiens, SK-BR-3): 32 nM; EC50 ([8]; Homo sapiens, OVCAR-3, read-out: EC50, OVCAR3, 3H thymidine method, 72 h incubation): 3.2 nM; EC50 ([9]; Homo sapiens, HL-60, read-out: EC50, HL-60, 3H thymidine method, 72 h incubation): 0.45 nM; EC50 ([10]; Homo sapiens, Raji, read-out: EC50, Raji, 3H thymidine method, 72 h incubation): 7 nM; EC50 ([11]; Homo sapiens, HCT-15, 48 h, read-out: EC50 HCT-15 (48 h), ATP luminescence, HCT-15, 48 h incubation): 113 nM; EC50 ([12]; Homo sapiens, 72 h, read-out: EC50 U-87 MG (72 h), ATP luminescence, U-87 MG, 72 h incubation): 94 nM; EC50 ([13]; Homo sapiens, NCI-H460, 72 h, read-out: EC50 NCI-H460 (72 h), ATP luminescence, NCI-H460, 72 h incubation): 90 nM; EC50 ([14]; Homo sapiens, PC-3, 48 h, read-out: EC50 PC3 (48 h), ATP luminescence, PC3, 48 h incubation): > 3000 nM; EC50 ([15]; Homo sapiens, ZR75, 48 h, read-out: EC50 ZR-75 (48 h), ATP luminescence, ZR-75, 48 h incubation): 208 nM; EC50 ([16]; Homo sapiens, OVCAR-3, 72 h, read-out: EC50 OVCAR3 (72 h), ATP luminescence, OVCAR3, 72 h incubation): 49 nM; EC50 ([17]; Homo sapiens, CEM/C1, 48 h, read-out: EC50 CEM-C1 (48 h), ATP luminescence, CEM-C1, 48 h incubation): 61 nM; EC50 ([18]; Homo sapiens, RPMI-8226, 48 h, read-out: EC50 RPMI-8226 (48 h), ATP luminescence, RPMI-8226, 48 h incubation): 45 nM; EC50 ([19]; Homo sapiens, 72 h, read-out: EC50 Raji (72 h), ATP luminescence, Raji, 72 h incubation): 46 nM; EC50 ([20]; Homo sapiens, SW-620, 96 h, read-out: EC50 SW-620 (96 h), ATP luminescence, SW-620, 96 h incubation): 48 nM |
| CC[C@H](C)[C@H](NC(=O)[C@H]1CCCCN1C)C(=O)N(COC(=O)CC(C)C)[C@H](C[C@@H](O)c1nc(C(=O)N[C@@H](Cc2ccccc2)C(=O)OC)cs1)C(C)C [Compound 28] | 0.96 | > 100 | > 100 | 9.9 | > 100 | 5.8 | > 100 | 3.1 | 7.7 | 13 | 132 | 18 | 35 | 5.8 | 16 | 14 | 11 | 10 | 15 | 21 | – |
| CC[C@H](C)[C@H](NC(=O)[C@H]1CCCCN1C)C(=O)N(COC(=O)CC(C)C)[C@H](C[C@@H](OC(C)=O)c1nc(C(=O)N[C@@H](Cc2ccccc2)C(=O)OC)cs1)C(C)C [Compound 29] | 0.4 | 0.44 | 0.21 | 0.029 | 0.13 | 0.41 | 1.1 | 0.02 | 0.0099 | 0.024 | 4.5 | 4.9 | 3 | 3.4 | 15 | > 100 | 0.85 | 1 | 2.1 | 1.5 | – |
| CC[C@H](C)[C@H](NC(=O)[C@H]1CCCCN1C)C(=O)N(COC)[C@H](C[C@@H](OC)c1nc(C(=O)N[C@@H](Cc2ccccc2)C(=O)OC)cs1)C(C)C [Compound 29c] | 5.6 | 6.5 | 11 | 1.9 | 1 | 5.3 | 72 | 3.6 | 1.8 | 8.5 | – | 136 | 6 | 66 | 136 | – | – | – | 36 | 8.4 | EC50 ([11]; ATP luminescence, HCT-15, 48 h incubation, read-out: EC50 HCT-15 (48 h)): 200 nM; EC50 ([16]; ATP luminescence, OVCAR3, 72 h incubation, read-out: EC50 OVCAR3 (72 h)): 99 nM; EC50 ([17]; ATP luminescence, CEM-C1, 48 h incubation, read-out: EC50 CEM-C1 (48 h)): 20 nM; EC50 ([18]; ATP luminescence, RPMI-8226, 48 h incubation, read-out: EC50 RPMI-8226 (48 h)): 70 nM |
